Test results: patent publication US20060088596A1, “Solubilizing a drug for use in a coating” (ATRIUM MEDICAL CORPORATION, priority 2004, published 2006)

How the values were obtained:
[1] = Maximum solubility / drug loading of therapeutic agent in vitamin E / bio-absorbable carrier base coating (crystal inspection after solvent removal); assay type: physicochemical; details: for maximum solubility: NMP
From the text: The amount of solvent that can be included in compositions of the present invention is not particularly limited. In accordance with one embodiment of the present invention, the amount of the therapeutic agent to be dissolved can be an amount up to the maximum amount that can be dissolved in the solvent, vitamin E compound and the bio-absorbable carrier component. The maximum amount of the therapeutic agent that can be dissolved is readily determined by simple mixing, as the presence of any non-dissolved therapeutic agent is apparent after solvent removal on visual inspection. In various embodiments, the amount of the therapeutic agent will be less than the maximum that can be dissolved. Upon administration to a subject of the therapeutic agent dissolved in the bio-absorbable carrier and the solvent, the amount of the given solvent can be limited to a pharmaceutically acceptable amount, which can be readily determined by one of skill in the art. In various aspects, it can be appropriate to include amounts of solvents in excess of pharmaceutically acceptable amounts, with excess solvent removed prior to providing the administration of the composition using conventional techniques such as evaporation.
Referring again to FIG. 1, the ratio of a vitamin E compound and the bio-absorbable carrier component is then determined (step 130). […] The bio-absorbable carrier component can include fish oil, fish oil mono, di and triglycerides, free fatty acids, fatty acid esters, partially oxidized oil, or hydrolyzed oil and any derivatives. After the formulations are made the solvent is removed from the sample under vacuum and the drug formulation is inspected under a microscope for crystal formation. The level of soluble drug can be influenced by such factors as vitamin E level, fish oil level, fatty acid ester content, free fatty acid content, mono, di or triglyceride content, presence of oxidation, or by hydrolysis byproducts of the oil. The amount of soluble drug can also be effected by the solvent and/or solvent loading that is used to load the drug into the formulation.
Referring again to FIG. 1, the bio-absorbable carrier component and the vitamin E compound or a combination thereof are provided (step 130). In accordance with one aspect of the present invention, the bio-absorbable carrier component and the vitamin E compound can be mixed together, for example, by vortexing, sonicating, stirring, rolling, or shaking, to form a second mixture (step 140). Accordingly, the second mixture can be mixed first, the first mixture can be mixed first, or the first mixture and the second mixture can be mixed substantially simultaneously. The first mixture and the second mixture can then be mixed (step 150) such that the therapeutic agent is dissolved, or, if the therapeutic agent was previously dissolved in the solvent, the therapeutic agent remains dissolved. After mixing the first mixture and the second mixture, the solvent is removed by techniques well known in the art, for example, by vacuum, washing, heating, evaporation and the like (step 160). Upon removal of the solvent, the resulting solution can be inspected for presence of crystal formation by techniques well known in the art (step 170). Suitable techniques for inspection for the presense of crystal formation include, for example, visual inspection, microscopic inspections, as well as chemical analysis techniques such as scanning electron microscopy (SEM), environmental scanning electron microscopy (ESEM), differential scanning calorimetry (DSC) and atomic force microscopy (AFM).
A bio-absorbable carrier component in combination with a vitamin E compound was made by mixing 1.5 grams of vitamin E and 3.5 grams of fish oil to form a base coating (30% vitamin E). A sample was then prepared by first dissolving 28 mg of rapamycin in 529 mg of NMP (N-methyl-2-pyrrolidone).

Porcine Coronary Model = details: stent coated with agent solubilized in eicosapentaenoic acid oil vs eicosapentaenoic acid oil coated stents; cited from earlier work

## COc1ccc2[nH]cc(CCNC(C)=O)c2c1 [melatonin]
[1]; 70% vitamin E and 30% fish oil fatty acid formulation
  maximum solubility: greater than 28%
[1]; 70% vitamin E and 30% fish oil formulation
  maximum solubility: 11.5%
[1]; 70% vitamin E and 30% fish oil, 9% by weight loading using N-methyl-2-pyrrolidone
  dissolution state of drug in coating after drying: totally dissolved
[1]; 70% vitamin E and 30% fish oil, 9% by weight loading using ethanol
  dissolution state of drug in coating after drying: forms crystals
[1]; 70% vitamin E/30% fish oil base coat, drug loaded from NMP
  maximum level of drug loading attainable before crystals began to form after drying: 11.5%
[1]; 70% vitamin E/30% fish oil fatty acids (FOFA) base coat, drug loaded from NMP
  maximum level of drug loading attainable before crystals began to form after drying: 28%

## C=C1[C@@H](C)[C@H]2[C@H](Cc3ccccc3)NC(=O)[C@]23[C@H](OC(C)=O)/C=C/[C@@](C)(O)C(=O)[C@@H](C)C/C=C/[C@H]3[C@@H]1O [cytochalasin D]
Porcine Coronary Model
  less area stenosis compared to the control group: 38%
  less intimal hyperplasia compared to the control group: 39%

## CC(=O)O[C@H]1C(=O)[C@@]2(C)[C@H]([C@H](OC(=O)c3ccccc3)[C@]3(O)C[C@H](OC(=O)[C@H](O)[C@@H](NC(=O)c4ccccc4)c4ccccc4)C(C)=C1C3(C)C)[C@]1(OC(C)=O)CO[C@@H]1C[C@@H]2O [paclitaxel]
[1]; 70% vitamin E/30% fish oil base coat, drug loaded from ethanol
  maximum level of drug loading attainable before crystals began to form after drying: 4.9%
[1]; 70% vitamin E/30% fish oil, 4.9% by weight loading using N-methyl-2-pyrrolidone
  dissolution state of drug in coating after drying: not totally dissolved
[1]; 70% vitamin E/30% fish oil, 5% by weight loading using ethanol
  dissolution state of drug in coating after drying: completely dissolved
